Columns and labels:
[1] = tested on: immune cells secreting IFN-γ and TNF-α; assay: MC38 model, co-administration with cisplatin: flow cytometry of cancer tissue; type: in vivo, mouse; conditions: versus control group; FIG. 34c
[2] = tested on: MIF; assay: MC38 model, co-administration with cisplatin: anti-MIF antibody titer and serum cytokines; type: in vivo, mouse; conditions: versus control group; FIG. 33
Source text: Thus, it was considered that the production of anti-MIF antibody increased, and it was expected that the production of serum cytokines, which is a measure of the increase in immune activity in the body, would also be increased.

Q: Which results are given for N.N.[Cl][Pt][Cl] [cisplatin]?
A: TCRγδ T cells secreting IFN-γ in cancer tissue [1]: increased; serum cytokine (IFN-γ and TNF-α) levels [2]: significantly increased
